Reference: patent US8084457B2, “Pharmaceutically active 4,6-disubstituted aminopyrimidine derivatives as modulators of protein kinases” (Lead Discovery Center GmbH, priority 2003, dated 2011)

Tests used:
CDK1 = CDK1 (Homo sapiens, UniProt P06493); assay: General kinase assay, selectivity panel: CDK1; format: biochemical; conditions: 10 μM of compound, in comparison to DMSO (0% inhibition)
Method: (§1) The inhibitory effect of compounds according to the present invention on the activity of protein kinases, depicted in Table 1, can be measured according to the following protocol:
(§2) Pipettinq Sequence: • 1) Add 10 μl 4 fold concentrated Substrate+4 fold concentrated ATP in 3 fold concentrated Reaction Buffer to each well of Assay Plate • 2) Add 10 μl 4 fold concentrated inhibitor in 4% DMSO in H2O to each well except to C− and C+ wells • 3) Add 10 μl 4% DMSO in H2O to C− and C+ wells • 4) Add 10 μl 500 mM EDTA in H2O to − wells • 5) Add 10 μl 50 μCi/ml Adenosine 5′-[γ-^33P]triphosphate in H2O to each well • 6) Add 10 μl 4 fold concentrated kinase in Reaction Buffer to each well • 7) Incubate 1 hr at room temperature • 8) Add 10 μl 50 mM EDTA in H2O to each well except to C− wells • 9) Prepare MAPH plates by adding 200 μl 0.75% H3PO4 to each well • 10) Exhaust 0.75% H3PO4 using Millipore vacuum station • 11) Add 60 μl 0.75% H3PO4 to each well of MAPH Filter Plate • 12) Transfer 30 μl sample per well from Assay Plate to corresponding well of MAPH Filter Plate • 13) Incubate 30 min at room temperature • 14) Wash each well of MAPH Filter Plates 3× with 200 μl 0.75% H3PO4 using Millipore vacuum station. • 15) Add 20 μl Scintillation Liquid to each well of MAPH Filter Plate • 16) Seal MAPH Filter Plate • 17) Store MAPH Filter Plate 30 min in darkness • 18) Quantify radioactivity
(§3) The activity of these protein kinases is depicted as % inhibition in the presence of 10 μM of compound in comparison to DMSO (0% inhibition).

GSK-3β = GSK-3β (Homo sapiens, UniProt P49841); assay: General kinase assay, selectivity panel: GSK-3β; format: biochemical; conditions: 10 μM of compound, in comparison to DMSO (0% inhibition)
Method: as §1, §2, §3

PDGFR = assay: General kinase assay, selectivity panel: PDGFR; format: biochemical; conditions: 10 μM of compound, in comparison to DMSO (0% inhibition)
Method: as §1, §2, §3

c-Src = c-Src (Homo sapiens, UniProt P12931); assay: General kinase assay, selectivity panel: c-Src; format: biochemical; conditions: 10 μM of compound, in comparison to DMSO (0% inhibition)
Method: as §1, §2, §3

Abl = Abl (Homo sapiens, UniProt P00519); assay: General kinase assay, selectivity panel: Abl; format: biochemical; conditions: 10 μM of compound, in comparison to DMSO (0% inhibition)
Method: as §1, §2, §3

EGFR = EGFR (Homo sapiens, UniProt P00533); assay: General kinase assay, selectivity panel: EGFR; format: biochemical; conditions: 10 μM of compound, in comparison to DMSO (0% inhibition)
Method: as §1, §2, §3

cMet = cMet (Homo sapiens, UniProt P08581); assay: General kinase assay, selectivity panel: cMet; format: biochemical; conditions: 10 μM of compound, in comparison to DMSO (0% inhibition)
Method: as §1, §2, §3

p56 Lck = p56 Lck (Homo sapiens, UniProt P06239); assay: General kinase assay, selectivity panel: p56 Lck; format: biochemical; conditions: 10 μM of compound, in comparison to DMSO (0% inhibition)
Method: as §1, §2, §3

c-Kit = c-Kit (Homo sapiens, UniProt P10721); assay: General kinase assay, selectivity panel: c-Kit; format: biochemical; conditions: 10 μM of compound, in comparison to DMSO (0% inhibition)
Method: as §1, §2, §3

HCMV strain AD169 = assay: HCMV replication assay in HFF cells (EGFP); format: cell-based; conditions: strain AD 169 in HFF cells
Method: Human foreskin fibroblasts (HFF) cell culture were grown in DMEM containing 10% FCS. For HCMV-replication assays, HFF cells were infected with HCMV strain AD169 producing EGFP (HCMV AD169-GFP; 27). 1 h post infection, medium was changed with medium containing the indicated compound concentration (0.3 μM, 1 μM and 3 μM, respectively) After incubation of 7 days cells were lysed (in 25 mM Tris, pH 7.5, 2 mM DTT, 1% Triton X-100 and 10% glycerol) and analysed for EGFP content in a Wallac Victor fluorescence detector.

[1] = test system: NFκB-dependent transcriptional activity; assay: NFκB-dependent transcriptional activity (NIH 3T3 75E 11/300D8 cell line); format: cell-based; conditions: for EC50: titration
Description: NFκB-dependent Transcriptional Activity:
The used NIH 3T3 75E 11/300D8 cell line is described elsewhere (J. Eickhoff et al., Journal of Biological Chemistry, 2004, 279(10), 9642-9652).
It is known, that CDK9 regulates the NFκB-dependent transitional activity. With Compound 4, Compound 7 and Compound 30 studies were done, to evaluate their effect on NFκB-dependent transcriptional activity.

[2] = test system: CDK9-dependent phosphorylation of RNA-polymerase II; assay: Determination of RNA polymerase II C-terminal domain phosphorylation (western blot, PM1 cells); format: cell-based
Method: Determination of RNA Polymerase II C-terminal Domain Phosphorylation: The phosphorylation status of RNA polymerase II C-terminal domain was determined by western blot techniques. PM1 cells were seeded in 6-well plates at a density of 5×10^5 per well. After over night incubation cells were treated with compound as indicated in the respective experiments. Cells were pelleted and lysed with 300 μL 3× Laemmli buffer followed by 30 min denaturing at 65° C. After separation of equal lysate volumes by SDS-PAGE the proteins were transferred to nitrocellulose membranes (Schleicher&Schuell) and probed with anti-[…] (H5), anti-[…] (H14) or RNA Poll II-antibodies purchased from Eurogentec and Santa Cruz, respectively. The amount of reactive protein was visualized by ECL detection methods (Amersham). In order to see, if the compounds according to the general formula (I) do have the intrinsic capacity to penetrate cells and act against cellular target proteins, especially CDK9, the effect of Compound 30 on CDK9-dependent phosphorylation of RNA-polymerase II was investigated.

HBV = HBV replication assay in HepG2-2.2.15 cells; format: cell-based
Method: To test anti—HBV-activity of compounds the HBV-producing cell line HepG2-2.2.15 (M. A. Sells, PNAS 1987, 84, 1005-1009) was used. 1.0×10^4 cells were seeded in 96-well microtiter plates in DMEM medium supplemented with 10% FCS. After incubation at 37° C. in 5% CO2 atmosphere for 24 hours the medium was replaced with fresh medium containing the appropriately diluted compound. 3 days later medium was replaced by freshly prepared inhibitor-containing medium and the cells were incubated for further 3 days. Subsequently 200 μl lysis buffer (50 mM Tris-Cl 7.5; 1 mM EDTA 8.0; 0.5% NP40) per well was added. To remove cell debris and […], lysate was centrifuged (15000 rpm, 10 min, 4° C.). Cellular and viral RNA was removed by addition of 2 μl of RNase. 100 μl of the samples were spotted onto an uncharged nylon membrane pre-wetted with PBS (phosphate-buffered saline) using a 96 well-blotting chamber (MINIfold Dot-Blot, Schleicher&Schüll). After further washing with 200 μl PBS per well the membrane was treated twice with 0.5 M NaOH, 1.5 M NaCl (2 min) and 4 times with 0.5 M Tris 7.5, 3 M NaCl (1 min). The nucleic acids were fixed by UV-treatment and used for hybridisabon with a radioactive HBV-fragment prepared from the overgenome-length HBV-plasmid pT-HBV1.3 (L. G. Guidotti et al., Journal of Virology 1995., 69(10), 6158-6169).
The fixed membrane was pre-hybridized in a standard hybridisation buffer (50% formamide, 5×SSPE, 10×Denhards, 1% SDS, 100 μg/ml salmon sperm DNA) for at least 3 hours at 42° C. and hybridised overnight against the labelled HBV-fragment. The preparation of the HBV-fragment with the “Random primers DNA labelling system” (Invitrogen) was done according to the manufacturer's instructions. Hybridized filter were washed at room temperature with 2×SSC, at 62° C. with 2×SSC, 0.5% SDS and at 62° C. with 0.5×SSC, 0.5% SDS. Each washing step was carried out twice. The intensity of the HBV-DNA was quantified using a phosphoimager (Fuji). […] Absorbance was monitored at 570 nm and 600 nm wavelength.

RSK1 = RSK1 (Homo sapiens, UniProt Q15418); assay: General kinase assay, selectivity panel: RSK1; format: biochemical; conditions: 10 μM of compound, in comparison to DMSO (0% inhibition)
Method: as §1, §2, §3

Chain of GSK-3β (P49841 whole entry, species assumed): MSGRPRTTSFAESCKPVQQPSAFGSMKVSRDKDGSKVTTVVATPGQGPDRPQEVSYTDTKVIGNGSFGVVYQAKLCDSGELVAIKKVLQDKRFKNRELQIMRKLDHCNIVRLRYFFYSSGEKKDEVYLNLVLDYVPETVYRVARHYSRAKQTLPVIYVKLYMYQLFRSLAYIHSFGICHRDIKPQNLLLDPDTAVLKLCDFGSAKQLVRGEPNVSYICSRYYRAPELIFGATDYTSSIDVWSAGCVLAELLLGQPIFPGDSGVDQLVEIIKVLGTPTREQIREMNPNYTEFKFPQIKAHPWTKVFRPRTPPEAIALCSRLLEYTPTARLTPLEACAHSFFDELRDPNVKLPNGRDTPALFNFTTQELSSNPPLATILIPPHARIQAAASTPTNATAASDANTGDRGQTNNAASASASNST
Chain of c-Src (P12931 whole entry, species assumed): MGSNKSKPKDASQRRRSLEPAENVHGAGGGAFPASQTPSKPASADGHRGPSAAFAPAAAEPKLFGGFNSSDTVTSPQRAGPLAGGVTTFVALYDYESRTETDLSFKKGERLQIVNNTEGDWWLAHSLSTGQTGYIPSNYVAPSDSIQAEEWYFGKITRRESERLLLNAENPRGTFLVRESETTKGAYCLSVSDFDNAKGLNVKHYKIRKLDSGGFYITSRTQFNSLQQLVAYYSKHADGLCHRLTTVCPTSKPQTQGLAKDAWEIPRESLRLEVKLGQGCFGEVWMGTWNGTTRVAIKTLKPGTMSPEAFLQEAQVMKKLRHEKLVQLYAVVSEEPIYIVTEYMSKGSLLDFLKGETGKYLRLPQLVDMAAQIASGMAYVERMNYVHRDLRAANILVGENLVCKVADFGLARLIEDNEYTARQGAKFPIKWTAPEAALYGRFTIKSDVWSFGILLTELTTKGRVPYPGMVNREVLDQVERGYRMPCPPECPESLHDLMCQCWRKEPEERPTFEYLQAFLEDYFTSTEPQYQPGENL
Chain of p56 Lck (P06239 whole entry): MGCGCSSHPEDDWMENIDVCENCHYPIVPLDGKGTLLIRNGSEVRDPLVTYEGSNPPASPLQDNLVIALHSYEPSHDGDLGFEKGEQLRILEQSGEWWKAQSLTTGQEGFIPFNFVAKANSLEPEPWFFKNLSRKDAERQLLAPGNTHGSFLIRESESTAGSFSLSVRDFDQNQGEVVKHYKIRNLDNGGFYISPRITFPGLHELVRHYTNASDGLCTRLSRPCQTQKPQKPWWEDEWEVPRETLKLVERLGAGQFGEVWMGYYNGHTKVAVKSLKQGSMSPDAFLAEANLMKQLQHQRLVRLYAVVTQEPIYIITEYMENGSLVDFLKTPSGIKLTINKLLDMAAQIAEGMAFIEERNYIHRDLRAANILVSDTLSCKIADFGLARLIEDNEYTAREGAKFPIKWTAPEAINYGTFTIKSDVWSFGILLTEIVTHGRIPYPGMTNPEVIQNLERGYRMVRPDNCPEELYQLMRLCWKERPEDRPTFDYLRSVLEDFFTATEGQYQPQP
Chain of Abl (P00519 whole entry, species assumed): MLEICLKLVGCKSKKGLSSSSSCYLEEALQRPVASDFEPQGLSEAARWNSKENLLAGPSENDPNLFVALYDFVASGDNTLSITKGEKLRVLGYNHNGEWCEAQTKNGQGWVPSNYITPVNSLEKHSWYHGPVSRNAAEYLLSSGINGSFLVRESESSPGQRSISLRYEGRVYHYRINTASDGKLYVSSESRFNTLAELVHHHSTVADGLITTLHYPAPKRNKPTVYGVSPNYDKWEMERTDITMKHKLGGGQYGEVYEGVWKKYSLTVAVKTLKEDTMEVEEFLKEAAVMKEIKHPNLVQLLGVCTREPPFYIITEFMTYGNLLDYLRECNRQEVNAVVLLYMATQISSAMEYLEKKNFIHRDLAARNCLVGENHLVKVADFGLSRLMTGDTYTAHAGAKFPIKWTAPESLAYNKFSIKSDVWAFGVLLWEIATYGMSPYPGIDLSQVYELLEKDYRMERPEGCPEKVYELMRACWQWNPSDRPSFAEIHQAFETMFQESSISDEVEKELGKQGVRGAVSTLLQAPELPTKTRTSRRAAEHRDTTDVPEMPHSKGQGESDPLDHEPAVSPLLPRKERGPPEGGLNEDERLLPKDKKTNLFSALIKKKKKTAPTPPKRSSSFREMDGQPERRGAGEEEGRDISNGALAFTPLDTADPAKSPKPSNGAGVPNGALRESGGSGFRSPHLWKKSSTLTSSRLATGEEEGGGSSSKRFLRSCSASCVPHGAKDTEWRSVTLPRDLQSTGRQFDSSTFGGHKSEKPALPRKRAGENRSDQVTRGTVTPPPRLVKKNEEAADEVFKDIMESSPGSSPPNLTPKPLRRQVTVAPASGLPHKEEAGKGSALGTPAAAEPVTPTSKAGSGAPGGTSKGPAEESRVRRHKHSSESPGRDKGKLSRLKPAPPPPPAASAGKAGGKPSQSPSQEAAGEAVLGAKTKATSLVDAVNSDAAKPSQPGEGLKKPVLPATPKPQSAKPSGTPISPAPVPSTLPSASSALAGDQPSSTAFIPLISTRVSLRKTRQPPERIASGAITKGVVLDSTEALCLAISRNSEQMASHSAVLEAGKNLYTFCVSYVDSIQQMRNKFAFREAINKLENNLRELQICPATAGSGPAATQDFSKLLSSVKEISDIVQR
Chain of EGFR (P00533 25-1210, species assumed): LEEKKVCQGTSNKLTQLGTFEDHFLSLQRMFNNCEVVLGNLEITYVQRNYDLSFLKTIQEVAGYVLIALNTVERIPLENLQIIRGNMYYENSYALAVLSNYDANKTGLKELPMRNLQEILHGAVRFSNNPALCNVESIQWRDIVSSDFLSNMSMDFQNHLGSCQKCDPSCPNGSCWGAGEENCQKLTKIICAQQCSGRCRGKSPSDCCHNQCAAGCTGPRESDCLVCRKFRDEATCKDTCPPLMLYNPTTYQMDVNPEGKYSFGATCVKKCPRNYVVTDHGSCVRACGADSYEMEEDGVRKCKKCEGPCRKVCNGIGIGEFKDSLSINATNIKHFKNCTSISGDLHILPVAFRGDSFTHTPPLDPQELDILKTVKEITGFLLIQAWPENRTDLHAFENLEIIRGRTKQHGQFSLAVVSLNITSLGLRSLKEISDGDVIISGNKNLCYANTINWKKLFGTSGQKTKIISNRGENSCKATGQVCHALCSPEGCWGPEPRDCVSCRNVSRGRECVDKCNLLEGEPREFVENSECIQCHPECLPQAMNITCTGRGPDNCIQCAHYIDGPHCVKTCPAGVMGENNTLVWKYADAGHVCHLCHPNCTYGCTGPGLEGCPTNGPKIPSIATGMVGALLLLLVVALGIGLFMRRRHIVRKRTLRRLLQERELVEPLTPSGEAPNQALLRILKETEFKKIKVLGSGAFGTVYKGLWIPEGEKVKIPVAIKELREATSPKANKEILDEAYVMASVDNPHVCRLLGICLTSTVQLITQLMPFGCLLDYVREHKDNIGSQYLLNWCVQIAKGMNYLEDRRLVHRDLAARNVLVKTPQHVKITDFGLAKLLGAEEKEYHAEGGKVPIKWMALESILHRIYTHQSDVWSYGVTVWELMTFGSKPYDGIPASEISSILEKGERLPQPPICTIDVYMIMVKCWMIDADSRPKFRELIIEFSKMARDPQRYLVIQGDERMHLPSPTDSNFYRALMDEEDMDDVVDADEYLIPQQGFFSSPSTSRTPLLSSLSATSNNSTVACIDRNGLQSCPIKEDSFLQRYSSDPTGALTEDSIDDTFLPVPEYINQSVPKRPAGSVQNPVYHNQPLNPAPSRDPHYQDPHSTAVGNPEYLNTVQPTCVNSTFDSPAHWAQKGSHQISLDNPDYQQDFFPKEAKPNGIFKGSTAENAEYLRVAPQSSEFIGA
Chain of c-Kit (P10721 26-976): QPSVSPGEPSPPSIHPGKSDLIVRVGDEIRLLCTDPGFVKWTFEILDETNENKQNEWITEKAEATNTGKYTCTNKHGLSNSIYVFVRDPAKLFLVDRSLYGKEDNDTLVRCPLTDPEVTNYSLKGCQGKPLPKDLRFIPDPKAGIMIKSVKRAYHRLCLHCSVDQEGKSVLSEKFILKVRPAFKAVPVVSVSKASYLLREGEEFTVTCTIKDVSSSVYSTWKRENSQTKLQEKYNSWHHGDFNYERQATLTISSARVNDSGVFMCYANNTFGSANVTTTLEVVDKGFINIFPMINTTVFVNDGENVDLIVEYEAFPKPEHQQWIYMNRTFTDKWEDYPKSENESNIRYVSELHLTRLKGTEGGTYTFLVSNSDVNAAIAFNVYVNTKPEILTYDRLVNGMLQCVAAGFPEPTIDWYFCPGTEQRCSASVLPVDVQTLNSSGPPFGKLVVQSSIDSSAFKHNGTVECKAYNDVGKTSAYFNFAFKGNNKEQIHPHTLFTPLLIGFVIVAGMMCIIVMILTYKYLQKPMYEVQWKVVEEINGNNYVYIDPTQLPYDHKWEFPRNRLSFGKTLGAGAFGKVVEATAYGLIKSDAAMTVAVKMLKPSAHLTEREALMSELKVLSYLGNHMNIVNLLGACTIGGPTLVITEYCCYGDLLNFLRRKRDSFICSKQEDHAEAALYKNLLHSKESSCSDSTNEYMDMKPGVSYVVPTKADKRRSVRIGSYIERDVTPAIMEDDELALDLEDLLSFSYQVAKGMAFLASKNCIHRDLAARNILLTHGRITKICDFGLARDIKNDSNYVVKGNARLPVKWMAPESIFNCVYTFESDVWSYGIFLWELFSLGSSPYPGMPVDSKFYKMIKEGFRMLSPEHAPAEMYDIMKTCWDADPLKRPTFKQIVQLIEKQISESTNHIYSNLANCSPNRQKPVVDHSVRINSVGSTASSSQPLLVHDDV

PDGFR (% inhibition) (PDGFR)	c-Src (% inhibition) (c-Src)	Abl (% inhibition) (Abl)	EGFR (% inhibition) (EGFR)	cMet (% inhibition) (cMet)	RSK1 (% inhibition) (RSK1)	SMILES	CDK1 (% inhibition) (CDK1)	GSK-3β (% inhibition) (GSK-3β)	p56 Lck (% inhibition) (p56 Lck)	c-Kit (% inhibition) (c-Kit)	HCMV replication (in words) (HCMV strain AD169)	inhibition of NFκB (in words, compared with Compound 30) [1]	EC50 [1] [nM]	molecular weight of RNA polymerase II [2]	serine 2 phosphorylation of RNA polymerase II ([2]; anti-SER2 (H5))	serine 5 phosphorylation of RNA polymerase II ([2]; anti-SER5 (H14))	TNF-α stimulated NFκB-dependent promoter activity ([1]; 1 μM final concentration, TNF-α stimulated)	NFκB-dependent promoter activity under non-stimulated conditions ([1]; non-stimulated conditions)	HBV replication (in words) (HBV)
b (inhibition between 80 and 50%: b)	b (inhibition between 80 and 50%: b)	c (inhibition between 50 and 30%: c)	b (inhibition between 80 and 50%: b)	b (inhibition between 80 and 50%: b)	–	COc1ccccc1-c1cc(Nc2ccc(C(=O)N[C@@H]3CCCC[C@H]3N)cc2)ncn1 (racemic) [Compound 83]	a (inhibition greater than 80%: a)	c (inhibition between 50 and 30%: c)	b (inhibition between 80 and 50%: b)	b (inhibition between 80 and 50%: b)	–	–	–	–	–	–	–	–	–
c (inhibition between 50 and 30%: c)	b (inhibition between 80 and 50%: b)	–	b (inhibition between 80 and 50%: b)	–	–	NC(=O)c1ccc(Nc2cc(-c3ccccc3OCc3ccccc3)ncn2)cc1 [Compound 95]	a (inhibition greater than 80%: a)	a (inhibition greater than 80%: a)	b (inhibition between 80 and 50%: b)	–	–	–	–	–	–	–	–	–	–

Further lines, the compound ahead of its results:

SMILES	PDGFR (% inhibition) (PDGFR)	c-Src (% inhibition) (c-Src)	Abl (% inhibition) (Abl)	EGFR (% inhibition) (EGFR)	cMet (% inhibition) (cMet)	RSK1 (% inhibition) (RSK1)	CDK1 (% inhibition) (CDK1)	GSK-3β (% inhibition) (GSK-3β)	p56 Lck (% inhibition) (p56 Lck)	c-Kit (% inhibition) (c-Kit)	HCMV replication (in words) (HCMV strain AD169)	inhibition of NFκB (in words, compared with Compound 30) [1]	EC50 [1] [nM]	molecular weight of RNA polymerase II [2]	serine 2 phosphorylation of RNA polymerase II ([2]; anti-SER2 (H5))	serine 5 phosphorylation of RNA polymerase II ([2]; anti-SER5 (H14))	TNF-α stimulated NFκB-dependent promoter activity ([1]; 1 μM final concentration, TNF-α stimulated)	NFκB-dependent promoter activity under non-stimulated conditions ([1]; non-stimulated conditions)	HBV replication (in words) (HBV)
Nc1ccc(C(=O)Nc2ccc(Nc3cc(-c4ccccc4OCc4ccccc4)ncn3)cc2)cc1 [Compound 4]	–	–	–	c (inhibition between 50 and 30%: c)	–	–	a (inhibition greater than 80%: a)	a (inhibition greater than 80%: a)	a (inhibition greater than 80%: a)	–	showed inhibition	less effectively	~2000	–	–	–	–	–	–
COc1ccc(-c2cc(Nc3ccc(NC(=O)c4ccc(N)cc4)cc3)ncn2)cc1 [Compound 6]	c (inhibition between 50 and 30%: c)	–	–	–	–	–	a (inhibition greater than 80%: a)	b (inhibition between 80 and 50%: b)	c (inhibition between 50 and 30%: c)	b (inhibition between 80 and 50%: b)	showed inhibition	–	–	–	–	–	–	–	–
COc1ccccc1-c1cc(Nc2ccc(NC(=O)[C@@H]3CCCCN3)cc2)ncn1 [Compound 30]	c (inhibition between 50 and 30%: c)	b (inhibition between 80 and 50%: b)	b (inhibition between 80 and 50%: b)	a (inhibition greater than 80%: a)	c (inhibition between 50 and 30%: c)	–	a (inhibition greater than 80%: a)	c (inhibition between 50 and 30%: c)	b (inhibition between 80 and 50%: b)	b (inhibition between 80 and 50%: b)	showed inhibition	–	~1000	reduction	decreased	did not show any differences	able, to affect	no inhibition was observed	inactive
COc1ccccc1-c1cc(Nc2ccc(NC(=O)C3CCCN(C)C3)cc2)ncn1 (centres unmarked) [Compound 87]	b (inhibition between 80 and 50%: b)	–	b (inhibition between 80 and 50%: b)	a (inhibition greater than 80%: a)	c (inhibition between 50 and 30%: c)	b (inhibition between 80 and 50%: b)	a (inhibition greater than 80%: a)	–	b (inhibition between 80 and 50%: b)	b (inhibition between 80 and 50%: b)	–	–	–	–	–	–	–	–	–
